Results on six molecules are retold here after ChEMBL document CHEMBL1132268, “Non-thiol 3-aminomethylbenzamide inhibitors of farnesyl-protein transferase” (Bioorg Med Chem Lett, 1999).

pIC50: −log10 of the molar value. Values after ≈ are worked out from the molar mass of the structure shown.

The target of assay [1] is Protein farnesyltransferase (Homo sapiens, UniProt P49354+P49356). The experiment in a line: Inhibition of [3H]FPP incorporation into recombinant Ha-Ras by bovine brain farnesyltransferase. The assay is classed as functional, Bos taurus.
For assay [2], the target named is Geranylgeranyl transferase type I (Homo sapiens, UniProt P49354+P53609). As to the kind of experiment: Inhibition of geranylgeranyl transferase I (GGTase-I). It is filed as protein-complex assay.
In another assay the test system is NIH3T3. The experiment in a line: Inhibition of the post-translational prenylation of Ha-Ras protein in cultured NIH3T3 cells in a protein processing assay. The assay is classed as functional, cell-based. Conditions: Mus musculus.
For assay [3], the system named is Rat1. As to the kind of experiment: Inhibition of v-raf (Raf1a1) transformed RAT1 cell colony size and number in soft agar assay. The assay is classed as functional. Conditions: Rattus norvegicus.
Assay [4] relates to Rat1. As to the kind of experiment: Inhibition of v-Ha-ras (Ras2B) transformed RAT1 cell colony size and number in soft agar assay. The conditions noted are these: Rattus norvegicus. The assay is classed as functional.
Assay [5] has as its system Rat1. The experiment in a line: Minimal cytotoxic effect (<10%) in RAT1 cell viability assay. The assay is classed as functional, Rattus norvegicus.

One may read the pIC50 as the IC50 on a negative log10 scale, so that one unit is a factor of ten. The term MIC denotes the lowest concentration found to suppress growth. Lower therefore signals a more susceptible organism.

Take `CSCC[C@H](NC(=O)c1cccc(CN(Cc2ccc(C#N)cc2)Cc2cnc[nH]2)c1)C(=O)O`: the pIC50 in assay [1] was 7.92; in assay [2], 5.21.
In the assay with NIH3T3, `COC(=O)[C@H](CCSC)NC(=O)c1cccc(CN(Cc2ccc(C#N)cc2)Cc2cncn2Cc2ccc(C#N)cc2)c1` showed a pIC50 of about 5.30. Besides, the MIC was over 10 µM against Rat1 [3] and at most 1 µM with Rat1 [4]. The molecule also showed a CTE in the assay with Rat1 [5] of 25 µM.
In the case of `CSCC[C@H](NC(=O)c1cccc(CN(Cc2cnc[nH]2)Cc2cnc[nH]2)c1)C(=O)O`, the pIC50 in assay [1] was 6.06; in assay [2], 4.77.
In the case of `CCCCN(Cc1cccc(C(=O)N[C@@H](CCSC)C(=O)OC)c1)Cc1cncn1Cc1ccc(C#N)cc1`, the MIC against Rat1 [3] and against Rat1 [4] was over 10 µM throughout. The same molecule showed a CTE in the assay on Rat1 [5] of 25 µM.
`COC(=O)[C@H](CCSC)NC(=O)c1cccc(CN(Cc2ccc(C#N)cc2)Cc2c[nH]cn2)c1`: the MIC against Rat1 [3] was over 10 µM; with Rat1 [4], 10 µM (≈ 4.92 µg/mL). Also, the CTE entry in the assay on Rat1 [5] is listed as “>=50 uM”.
The matching figures for `COC(=O)[C@H](CCSC)NC(=O)c1cccc(CNCc2cncn2Cc2ccc(C#N)cc2)c1`: over 10 µM, 10 µM (≈ 4.92 µg/mL) and 25 µM.
